In ChEMBL document CHEMBL1157992, “Alvaradoins A-D. Anthracenone C arabinosides from alvaradoa jamaicensis” (J Nat Prod, 1999):
Activity calls are given as the source filed them. The rule behind the calls is not given here.

System: Mycobacterium tuberculosis
Experiment: Antituberculosis activity against Mycobacterium tuberculosis at 12.5 ug/mL
Assay type: functional, organism-based

COc1cc(O)c2c(c1)[C@@H]([C@H]1OC[C@H](OC(C)=O)[C@H](OC(=O)C=C(C)C)[C@H]1O)c1cc(C)cc(O)c1C2=O
Activity: inactive

COc1cc(O)c2c(c1)C(=O)c1cc(C)cc(O)c1C2=O
Activity: inactive

COc1cc(O)c2c(c1)[C@H]([C@H]1OC[C@H](OC(C)=O)[C@H](OC(=O)C=C(C)C)[C@H]1O)c1cc(C)cc(O)c1C2=O
Activity: inactive

COc1cc(O)c2c(c1)[C@@](O)([C@H]1OC[C@H](OC(C)=O)[C@H](OC(=O)C=C(C)C)[C@H]1O)c1cc(C)cc(O)c1C2=O
Activity: inactive

Cc1cc(O)c2c(c1)C(=O)c1cccc(O)c1C2=O
Activity: inactive

COc1cc(O)c2c(c1)[C@](O)([C@H]1OC[C@H](OC(C)=O)[C@H](OC(=O)C=C(C)C)[C@H]1O)c1cc(C)cc(O)c1C2=O
Activity: inactive
